Some test systems named below: COLO 205 colon; EKVX NSCLC; HOP-62 NSCLC; HS 578T breast; K-562 leukemia; MALME-3M melanoma; MDA-MB-231 breast; RPMI-8226 leukemia; T-47D breast; UACC-257 melanoma.
Common to all, as to test: inhibition of tumour cell growth, NCI panel, 48 h

Several values for one entry are separate records, joined by “and”; a condition that tells them apart may be missing. Identical values can stand only once.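 Where inhibition never reached the appropriate level, the endpoint shown equals the highest concentration tested. Otherwise, values were interpolated linearly from a five-concentration, 48-hour dose response in 96-well plates. Here, GI50 denotes the concentration required for 50% inhibition of growth. TGI marks complete inhibition of growth.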 Where only a bound is given, the exact number is not on record here.

Turning to `C/C(CCC(=O)O)=N/Nc1ccc([N+](=O)[O-])cc1`, the GI50 is 3.43 µM with COLO 205 colon; 28.5 µM in the assay with EKVX NSCLC; over 100 µM in the assay on HOP-62 NSCLC; over 100 µM with HS 578T breast; 0.563 µM in the assay with K-562 leukemia; 65 µM in the assay with MALME-3M melanoma. In addition, the GI50 with MDA-MB-231 breast was 7.16 µM; in the assay with RPMI-8226 leukemia it was 57.7 µM; in the assay with T-47D breast, 3.66 µM; in the assay on UACC-257 melanoma it was 70.6 µM. For the same compound, the TGI in the assay on COLO 205 colon, in the assay on EKVX NSCLC, with HOP-62 NSCLC, in the assay with HS 578T breast, in the assay on K-562 leukemia and in the assay on MALME-3M melanoma was over 100 µM throughout. In addition, the TGI in the assay with MDA-MB-231 breast, with RPMI-8226 leukemia, in the assay on T-47D breast and in the assay on UACC-257 melanoma was over 100 µM in each case.
Take `COC(=O)Oc1nn(C(=O)OC)c(=O)c2ccccc12`: the TGI in the assay on COLO 205 colon, in the assay on EKVX NSCLC, in the assay on HOP-62 NSCLC, with HS 578T breast, in the assay with K-562 leukemia and in the assay on MALME-3M melanoma was over 100 µM in each case. Moreover, the TGI with MDA-MB-231 breast, with RPMI-8226 leukemia, in the assay on T-47D breast and in the assay on UACC-257 melanoma was over 100 µM in each case.
As to `CNS(=O)(=O)OCC1OC(n2cnc3cncnc32)C(O)C1O` (centres undefined), the GI50 with COLO 205 colon, with EKVX NSCLC, in the assay with HOP-62 NSCLC, with HS 578T breast, with K-562 leukemia and with MALME-3M melanoma was over 100 µM throughout. The GI50 with MDA-MB-231 breast, in the assay on RPMI-8226 leukemia, with T-47D breast and with UACC-257 melanoma was over 100 µM in each case. Also, the TGI in the assay on COLO 205 colon, in the assay with EKVX NSCLC, in the assay with HOP-62 NSCLC, in the assay on HS 578T breast, with K-562 leukemia and in the assay with MALME-3M melanoma was over 100 µM throughout. Besides, the TGI in the assay with MDA-MB-231 breast, in the assay with RPMI-8226 leukemia, in the assay with T-47D breast and in the assay with UACC-257 melanoma was over 100 µM in each case.
As to `Cc1ccc(F)c(NC(=O)Nc2ccc(-c3cccc4[nH]nc(N)c34)cc2)c1`, the GI50 in the assay on COLO 205 colon is 2.21 µM and 2.27 µM; in the assay on EKVX NSCLC, 3.58 µM and 3.52 µM; in the assay on HOP-62 NSCLC, 4.07 µM and 3.12 µM; with HS 578T breast it was 2.5 µM and 2.91 µM; with K-562 leukemia, 3.66 µM and 2.28 µM; in the assay on MALME-3M melanoma, 4.24 µM and 2.64 µM. The GI50 is 4.31 µM and 3.39 µM in the assay on MDA-MB-231 breast; 2.27 µM and 2.39 µM in the assay on RPMI-8226 leukemia; 3.62 µM and 2.89 µM in the assay on T-47D breast; 4.39 µM and 5.34 µM in the assay on UACC-257 melanoma. In addition, the TGI is 4.32 µM and 4.9 µM in the assay on COLO 205 colon; 16.6 µM and > 10 µM in the assay on EKVX NSCLC; 16.2 µM and > 10 µM with HOP-62 NSCLC; 12.6 µM and > 10 µM in the assay with HS 578T breast; > 57.5 µM and 9.29 µM in the assay with K-562 leukemia; 16.4 µM and 7.36 µM with MALME-3M melanoma. Also, the TGI with MDA-MB-231 breast was 16.4 µM and > 10 µM; in the assay with RPMI-8226 leukemia it was 6.11 µM and 6.27 µM; in the assay on T-47D breast, 17.3 µM and > 10 µM; with UACC-257 melanoma, 16.7 µM and > 10 µM.
On to `CC1=C/C=C/C(=O)O[C@@H]([C@H](C)[C@H](O)[C@@H](C)NC(=O)C(C)C)[C@H](C)/C=C/C(C)=C/[C@H]2C=CCC[C@@]2(C)\C=C\1`, for which the GI50 was 0.322 µM and 0.189 µM in the assay on COLO 205 colon; 1.65 µM and 3.94 µM with EKVX NSCLC; 2.13 µM and 4.68 µM in the assay on HOP-62 NSCLC; 6.73 µM and 1.9 µM in the assay with HS 578T breast; 0.559 µM and 0.565 µM in the assay on K-562 leukemia; 2.01 µM and 1.71 µM in the assay on MALME-3M melanoma. The GI50 with MDA-MB-231 breast is 0.0186 µM; with RPMI-8226 leukemia it was 0.705 µM and 0.703 µM; with T-47D breast, 0.112 µM and 0.132 µM. For the same compound, the TGI with COLO 205 colon is 7.33 µM; in the assay with EKVX NSCLC, 25.1 µM; with HOP-62 NSCLC, 12.5 µM; in the assay with HS 578T breast, over 42.3 µM; with K-562 leukemia, 36.9 µM; with MALME-3M melanoma it was 8.4 µM. Also, the TGI in the assay with MDA-MB-231 breast amounted to 0.106 µM; in the assay with RPMI-8226 leukemia, 12.3 µM; with T-47D breast it was 36.6 µM; with UACC-257 melanoma, 13.3 µM.
On to `COc1cc(OC)cc(Oc2cnc3cc(N)cc(N)c3n2)c1`, for which the GI50 in the assay with COLO 205 colon is 14 µM; in the assay with EKVX NSCLC it was 18.5 µM; in the assay on HOP-62 NSCLC, 16.9 µM; in the assay on HS 578T breast it was 24.7 µM; in the assay with K-562 leukemia, 20.2 µM; in the assay with MALME-3M melanoma it was 10.7 µM. Also, the GI50 in the assay with MDA-MB-231 breast was 6.56 µM; in the assay with RPMI-8226 leukemia, 24 µM; in the assay on T-47D breast, 13.6 µM; in the assay on UACC-257 melanoma, 18 µM. For the same compound, the TGI with COLO 205 colon is 37.5 µM; with EKVX NSCLC, 46.2 µM; in the assay with HOP-62 NSCLC it was 36.6 µM; with HS 578T breast, 87.8 µM; in the assay on K-562 leukemia, 46.8 µM; in the assay with MALME-3M melanoma, 22.5 µM. For the same compound, the TGI was 21 µM with MDA-MB-231 breast, 53.7 µM in the assay on RPMI-8226 leukemia, 42.4 µM in the assay with T-47D breast and 33.7 µM in the assay with UACC-257 melanoma.
`O=C1Nc2ccccc2/C1=C\c1c(-c2ccccc2)nc2sccn12`: the GI50 in the assay on COLO 205 colon was 2.23 µM; with EKVX NSCLC it was 7.84 µM; in the assay with HOP-62 NSCLC, 2.32 µM; in the assay on HS 578T breast it was 5.58 µM; in the assay with K-562 leukemia, 0.624 µM; with MALME-3M melanoma it was 1.92 µM. In addition, the GI50 with MDA-MB-231 breast is 1.39 µM; in the assay with RPMI-8226 leukemia, 0.909 µM; with T-47D breast it was 2.65 µM; in the assay with UACC-257 melanoma, 14.9 µM. The TGI was 16.4 µM in the assay with COLO 205 colon; 32.6 µM in the assay with EKVX NSCLC; 9.44 µM with HOP-62 NSCLC; 18.7 µM in the assay with HS 578T breast; over 45.8 µM in the assay with K-562 leukemia; 21.7 µM in the assay with MALME-3M melanoma. Moreover, the TGI in the assay on MDA-MB-231 breast is 6.18 µM; with RPMI-8226 leukemia, 3.74 µM; in the assay on T-47D breast, over 33 µM; in the assay on UACC-257 melanoma, 41 µM.
Regarding `Oc1cc(N2CC2)c(O)cc1N1CC1`, the GI50 was 1.02 µM in the assay on COLO 205 colon; 2.62 µM with EKVX NSCLC; 0.632 µM in the assay with HOP-62 NSCLC; 2.33 µM with HS 578T breast; 1.2 µM in the assay with K-562 leukemia; 0.217 µM in the assay on MALME-3M melanoma. Besides, the GI50 was 10.3 µM in the assay with MDA-MB-231 breast, 1.53 µM in the assay on RPMI-8226 leukemia, 1.1 µM with T-47D breast and 0.851 µM in the assay on UACC-257 melanoma. The TGI is 2.21 µM in the assay on COLO 205 colon; 9.87 µM in the assay with EKVX NSCLC; 2.99 µM in the assay on HOP-62 NSCLC; over 22.9 µM in the assay on HS 578T breast; 15.4 µM in the assay on K-562 leukemia; 0.55 µM with MALME-3M melanoma. In addition, the TGI with MDA-MB-231 breast came out at 64.2 µM; with RPMI-8226 leukemia, 9.74 µM; in the assay on T-47D breast, 6.48 µM; in the assay on UACC-257 melanoma, 2.98 µM.

Values taken from PubChem BioAssay (NCI).
